Test results: ChEMBL document CHEMBL4118290, “Synthesis of 1,5-Anhydro-d-fructose derivatives and evaluation of their inflammasome inhibitors” (Bioorg Med Chem, 2018)
Calls of active or inactive are those of the source. No cut-off for these calls is given here.

Tests used:
[1] = target: T1, NACHT, LRR and PYD domains-containing protein 3 (Homo sapiens, UniProt Q96P20); experiment: Inhibition of nigericin-induced NLRP3 inflammasome activation in PMA-differentiated human THP1 cells assessed as reduction in LPS-stimulated IL-1beta secretion incubated for 1 hr prior to stimulation with nigericin for 1 hr by quanti-blue based SEAP reporter gene assay
T1 sequence (Q96P20 whole entry, the tested form may be a part): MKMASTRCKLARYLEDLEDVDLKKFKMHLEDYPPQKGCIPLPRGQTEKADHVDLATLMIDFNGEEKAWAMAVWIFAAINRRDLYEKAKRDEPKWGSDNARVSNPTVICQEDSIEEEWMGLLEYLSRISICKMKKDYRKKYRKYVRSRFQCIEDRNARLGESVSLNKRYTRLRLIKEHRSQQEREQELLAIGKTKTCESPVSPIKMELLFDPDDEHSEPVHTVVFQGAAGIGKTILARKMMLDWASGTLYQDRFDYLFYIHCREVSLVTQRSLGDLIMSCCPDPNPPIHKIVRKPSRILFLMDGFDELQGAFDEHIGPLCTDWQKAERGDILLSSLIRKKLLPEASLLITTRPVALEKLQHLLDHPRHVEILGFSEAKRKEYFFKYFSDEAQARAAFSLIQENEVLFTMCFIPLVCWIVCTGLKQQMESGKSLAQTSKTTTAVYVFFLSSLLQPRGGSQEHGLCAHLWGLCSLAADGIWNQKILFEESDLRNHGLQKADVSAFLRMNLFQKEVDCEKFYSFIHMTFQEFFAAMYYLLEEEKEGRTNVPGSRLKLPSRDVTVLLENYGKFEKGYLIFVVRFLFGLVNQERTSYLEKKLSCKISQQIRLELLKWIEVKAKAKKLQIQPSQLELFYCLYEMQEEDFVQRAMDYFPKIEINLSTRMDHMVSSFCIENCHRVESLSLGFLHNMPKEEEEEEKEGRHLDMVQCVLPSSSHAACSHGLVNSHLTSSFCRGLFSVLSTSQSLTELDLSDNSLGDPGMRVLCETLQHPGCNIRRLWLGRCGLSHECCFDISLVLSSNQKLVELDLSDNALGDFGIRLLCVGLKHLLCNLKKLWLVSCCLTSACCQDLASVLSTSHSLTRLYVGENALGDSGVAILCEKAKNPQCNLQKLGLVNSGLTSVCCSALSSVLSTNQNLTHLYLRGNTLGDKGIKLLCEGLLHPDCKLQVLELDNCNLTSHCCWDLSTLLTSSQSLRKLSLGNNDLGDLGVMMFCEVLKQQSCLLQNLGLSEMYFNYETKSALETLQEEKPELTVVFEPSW

[2] = target: NACHT, LRR and PYD domains-containing protein 3 (Mus musculus, UniProt Q8R4B8); experiment: (§1) Inhibition of nigericin-induced NLRP3 inflammasome activation in C57BL/6 mouse bone marrow derived macrophages assessed as reduction in LPS-stimulated IL-1beta secretion incubated for 1 hr followed by nigericin addition measured after 1 hr by ELISA
Chain of NACHT, LRR and PYD domains-containing protein 3 (Mus musculus, UniProt Q8R4B8) (Q8R4B8 whole entry, the tested form may be a part): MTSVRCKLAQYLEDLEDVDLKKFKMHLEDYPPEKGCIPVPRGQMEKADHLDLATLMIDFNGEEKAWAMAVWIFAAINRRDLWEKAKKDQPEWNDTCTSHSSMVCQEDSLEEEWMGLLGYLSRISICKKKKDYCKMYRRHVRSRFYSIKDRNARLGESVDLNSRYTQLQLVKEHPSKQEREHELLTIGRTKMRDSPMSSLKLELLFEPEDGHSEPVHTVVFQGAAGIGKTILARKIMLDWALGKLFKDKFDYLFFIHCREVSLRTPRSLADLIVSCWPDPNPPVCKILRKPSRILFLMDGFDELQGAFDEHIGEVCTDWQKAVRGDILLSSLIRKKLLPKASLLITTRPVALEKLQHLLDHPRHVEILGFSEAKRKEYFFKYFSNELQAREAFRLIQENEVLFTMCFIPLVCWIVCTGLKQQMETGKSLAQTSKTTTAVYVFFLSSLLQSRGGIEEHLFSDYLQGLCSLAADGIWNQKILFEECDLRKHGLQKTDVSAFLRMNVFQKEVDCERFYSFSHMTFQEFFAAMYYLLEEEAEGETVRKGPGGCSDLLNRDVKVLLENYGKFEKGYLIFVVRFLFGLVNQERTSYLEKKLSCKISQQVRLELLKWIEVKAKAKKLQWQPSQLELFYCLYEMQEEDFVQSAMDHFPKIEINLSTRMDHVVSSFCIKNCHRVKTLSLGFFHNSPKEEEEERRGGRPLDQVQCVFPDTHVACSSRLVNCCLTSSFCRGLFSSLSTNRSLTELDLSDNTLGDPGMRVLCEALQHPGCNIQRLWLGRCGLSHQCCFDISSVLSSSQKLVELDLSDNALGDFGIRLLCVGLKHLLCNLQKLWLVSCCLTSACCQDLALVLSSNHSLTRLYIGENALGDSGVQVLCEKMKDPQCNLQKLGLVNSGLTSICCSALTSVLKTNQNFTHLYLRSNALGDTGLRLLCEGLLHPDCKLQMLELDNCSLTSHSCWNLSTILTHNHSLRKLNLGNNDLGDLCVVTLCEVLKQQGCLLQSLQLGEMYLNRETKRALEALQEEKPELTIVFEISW

[3] = target: NACHT, LRR and PYD domains-containing protein 3 (Mus musculus) (UniProt Q8R4B8); experiment: Inhibition of nigericin-induced NLRP3-dependent pyroptosis in C57BL/6 mouse bone marrow derived macrophages assessed as restoration of LPS-stimulated decrease in intracellular ATP level incubated for 1 hr followed by nigericin addition measured after 1 hr by cell titer-glo reagent based luminescence assay
Chain of NACHT, LRR and PYD domains-containing protein 3 (Mus musculus) (Q8R4B8 whole entry, the tested form may be a part): as above

[4] = target: T1, NACHT, LRR and PYD domains-containing protein 3; experiment: Inhibition of nigericin-induced NLRP3 inflammasome activation in PMA-differentiated human THP1 cells assessed as reduction in LPS-stimulated IL-1beta secretion at 60 mM incubated for 1 hr prior to stimulation with nigericin for 1 hr by ELISA
[5] = target: NACHT, LRR and PYD domains-containing protein 3 (Mus musculus) (UniProt Q8R4B8); experiment: as §1
[6] = target: NACHT, LRR and PYD domains-containing protein 3 (Mus musculus) (UniProt Q8R4B8); experiment: as §1, with “LPS-stimulated processing of pro-IL-1beta to mature” for “LPS-stimulated”, “in cell lysate at 6.8 mM” for “secretion”, “Western blot analysis” for “ELISA”
[7] = target: T1, NACHT, LRR and PYD domains-containing protein 3; experiment: (§2) Inhibition of nigericin-induced NLRP3 inflammasome activation in PMA-differentiated human THP1 cells assessed as reduction in LPS-stimulated processing of pro-IL-1beta to mature IL-1beta in supernatant at 3.4 mM incubated for 1 hr followed by nigericin addition measured after 1 hr by Western blot analysis
[8] = target: NACHT, LRR and PYD domains-containing protein 3 (Mus musculus) (UniProt Q8R4B8); experiment: as §2, with “C57BL/6 mouse bone marrow derived macrophages” for “PMA-differentiated human THP1 cells”, “6.8” for “3.4”
[9] = target: T1, NACHT, LRR and PYD domains-containing protein 3; experiment: as §2, with “cell lysate” for “supernatant”
[10] = target: NACHT, LRR and PYD domains-containing protein 3 (Mus musculus) (UniProt Q8R4B8); experiment: as §2, with “C57BL/6 mouse bone marrow derived macrophages” for “PMA-differentiated human THP1 cells”, “100 uM” for “3.4 mM”
[11] = target: NACHT, LRR and PYD domains-containing protein 3 (Mus musculus) (UniProt Q8R4B8); experiment: as §1, with “LPS-stimulated processing of pro-IL-1beta to mature” for “LPS-stimulated”, “in cell lysate at 100 uM” for “secretion”, “Western blot analysis” for “ELISA”

IC50 [1] | IC50 [2] | inhibition [3] | inhibition [5] | SMILES | other results
6.6 µM | 1.2 µM |  |  | O=C1C=C[C@H]2CO[C@@H]1O2 | 
4.3 µM | 5.7 µM | Dose-dependent effect |  | CC(=O)OC[C@@H]1C=CC(=O)CO1 | 
5.1 µM | 8.4 µM | Dose-dependent effect |  | CCCCCCCC(=O)OC[C@@H]1C=CC(=O)CO1 | 
3.7 µM | 3.2 µM | Dose-dependent effect |  | CC(=O)OC[C@@H]1C=C(F)C(=O)CO1 | 
4.8 µM | 0.8 µM | Dose-dependent effect |  | O=C1C(F)=C[C@@H]2CO[C@H]1O2 (single isomer, unassigned) | 
 | 29000 µM |  | Dose-dependent effect | O=C1CO[C@H](CO)[C@@H](O)[C@@H]1O | inhibition [4]: inactive
2300 µM | 1600 µM | Dose-dependent effect | Dose-dependent effect | O=C1CO[C@H](CO)[C@@H](O)C1 | inhibition [6]: Active; inhibition [7]: Active; inhibition [8]: Active; inhibition [9]: Active
 | 16 µM | Dose-dependent effect | Dose-dependent effect | O=C1C=C[C@@H](CO)OC1 | inhibition [10]: Active; inhibition [11]: Active
3.6 µM | 3.6 µM | Dose-dependent effect |  | CCCC(=O)OC[C@@H]1C=CC(=O)CO1 | 
3.7 µM | 1 µM | Dose-dependent effect |  | CC(=O)OC1=C(F)C(OC(C)=O)[C@@H]2CO[C@H]1O2 (stereo partly specified) | 
